Laboratory results from patent US7919487B2, “Heteroaryl compounds” (Synta Pharmaceuticals Corporation, priority 2004, dated 2011).

The compounds below were run on IL-12 production in human PBMC or THP-1 cells (assay: Human in vitro assay: inhibition of IL-12 production in human PBMC or THP-1 cells (ELISA)). Conditions: THP-1, human PBMC or THP-1 cells, IFNγ plus LPS or SAC stimulation, representative in vitro data.
Assay type: cell-based
Excerpt: The biological activities of the compounds of the invention can be evaluated by a number of cell-based assays. One of such assays can be conducted using cells from human peripheral blood mononuclear cells (PBMC) or human monocytic cell line (THP-1). The cells are stimulated with a combination of human interferon-γ (IFNγ) and lipopolysaccharide or a combination of IFNγ and Staphylococcus aureus Cowan I in the presence of a test compound. The level of inhibition of IL-12 production can be measured by determining the amount of p70 by using a sandwich ELISA assay with anti-human IL-12 antibodies. IC50 of the test compound can then be determined. Specifically, PBMC or THP-1 cells are incubated with the test compound. Cell viability was assessed using the bioreduction of MTS [3-(4,5-dimethylthiazol-2-yl)-5-(3-carboxymethoxyphenyl)-2-(4-sulfophenyl)-2H-tetrazolium] (Promega, Madison, Wis.).
Reagents. Staphylococcus aureus Cowan I (SAC) was obtained from Calbiochem (La Jolla, Calif.), and lipopolysaccharide (LPS, Serratia marscencens) was obtained from Sigma (St Louis, Mo.). Human and mouse recombinant IFNγ were purchased from Boehringer Mannheim (Mannheim, Germany) and Pharmingen (San Diego, Calif.), respectively.
Human In Vitro Assay. Human PBMC were isolated by centrifugation using Ficoll-Paque (Pharmacia Biotech, Uppsala, Sweden) and prepared in RPMI medium supplemented with 10% fetal calf serum (FCS), 100 U/mL penicillin, and 100 μg/mL streptomycin. PBMC were plated in wells of a 96-well plate at a concentration of 5×10^5 cells/well, and primed by adding IFNγ (30 U/mL) for 22 h and stimulated by adding LPS (1 μg/mL), or by adding IFNγ (100 U/mL) and then stimulated by adding SAC (0.01%). A test pyrimidine compound was dissolved in DMSO, and added to wells of the 96-well plate. The final DMSO concentration was adjusted to 0.25% in all cultures, including the compound-free control. Human THP-1 cells were plated in wells, primed by adding IFNγ (100 U/mL) for 22 h and stimulated by adding SAC (0.025%) in the presence of different concentrations of the pyrimidine compound. Cell-free supernatants were taken 18 h later for measurement of cytokines. Cell viability was assessed using the bioreduction of MTS. Cell survival was estimated by determining the ratio of the absorbance in compound-treated groups versus compound-free control.
The supernatant was assayed for the amount of IL-12p40, IL-12p70, or IL-10 by using a sandwich ELISA with anti-human antibodies, i.e., a Human IL-12 p40 ELISA kit from R&D Systems (Berkeley, Calif.), and a Human IL-12 p70 or IL-10 ELISA kit from Endogen (Cambridge, Mass.). Assays were based on the manufacturer's instructions.
The biological activities of compounds were tested on human PBMC or THP-1 cells.

SMILES | IC50 [nM]
Cc1cccc(/C=N/Nc2nc(N)nc(-c3cccnc3)n2)c1 [Compound 143, (E)-4-(2-(3-methylbenzylidene)hydrazinyl)-6-(pyridin-3-yl)-1,3,5-triazin-2-amine] | > 1000
COc1nc(N/N=C/c2c[nH]c3ccccc23)nc(N(C(C)C)C(C)C)n1 [Compound 2, {4-[N′-(1H-Indol-3-ylmethylene)-hydrazino]-6-methoxy-[1,3,5]triazin-2-yl}-diisopropyl-amine] | 13600
Cc1[nH]c2ccc(NC(=O)c3cccc(-c4ccsc4)n3)cc2c1C [Compound 105, 6-Thiophen-3-yl-pyridine-2-carboxylic acid(2,3-dimethyl-1H-indol-5-yl)-amide] | > 1000
Cc1[nH]c2ccc(NC(=O)c3cccc(-c4cccnc4)n3)cc2c1C [Compound 106, [2,3′]Bipyridinyl-6-carboxylic acid(2,3-dimethyl-1H-indol-5-yl)-amide] | > 1000
COc1ccc(CCOc2cc(N(C)C)nc(N/N=C/c3cccc(C)c3)n2)cc1OC [Compound 16, {6-[2-(3,4-Dimethoxy-phenyl)-ethoxy]-2-[N′-(3-methyl-benzylidene)-hydrazino]-pyrimidin-4-yl}-dimethyl-amine] | 1060
COCCN(C)c1cc(N/N=C/c2cccc(C)c2)nc(OCCN2CCOCC2)n1 [Compound 31, (2-Methoxy-ethyl)-methyl-[6-[N′-(3-methyl-benzylidene)-hydrazino]-2-(2-morpholin-4-yl-ethoxy)-pyrimidin-4-yl]-amine] | 674
COc1ccc(CCOc2nc(N/N=C/c3c[nH]c4ccccc34)nc(N3CCSC3)n2)cc1OC [Compound 7, N-{4-[2-(3,4-Dimethoxy-phenyl)-ethoxy]-6-thiazolidin-3-yl-[1,3,5]triazin-2-yl}-N′-(1H-indol-3-ylmethylene)-hydrazine] | 20 to 53
COc1nc(N/N=C/c2cn(C)c3ccccc23)nc(N(C(C)C)C(C)C)n1 [Compound 1, Diisopropyl-{4-methoxy-6-[N′-(1-methyl-1H-indol-3-ylmethylene)-hydrazino]-[1,3,5]triazin-2-yl}-amine] | 13000
O=C1CCN(c2nc(N/N=C/c3c[nH]c4ccccc34)nc(OCCc3ccccn3)n2)CC1 [Compound 11, 1-[4-[N′-(1H-Indol-3-ylmethylene)-hydrazino]-6-(2-pyridin-2-yl-ethoxy)-[1,3,5]triazin-2-yl]-piperidin-4-one] | 500
CSc1nc(NC(=O)Nc2cccc(C)c2)nc(-c2cccnc2)n1 [Compound 145, 1-(4-(methylthio)-6-(pyridin-3-yl)-1,3,5-triazin-2-yl)-3-m-tolylurea] | > 1000
C(=N\Nc1nc(OCCc2ccccn2)nc(N2CCC3(CC2)OCCO3)n1)/c1c[nH]c2ccccc12 [Compound 8, N-[4-(1,4-Dioxa-8-aza-spiro[4.5]dec-8-yl)-6-(2-pyridin-2-yl-ethoxy)-[1,3,5]triazin-2-yl]-N′-(1H-indol-3-ylmethylene)-hydrazine] | 500
Cc1cccc(/C=N/Nc2cc(OCCN3CCOCC3)nc(-c3ccncc3)n2)c1 [Compound 141, (E)-4-(2-(6-(2-(3-methylbenzylidene)hydrazinyl)-2-(pyridin-4-yl)pyrimidin-4-yloxy)ethyl)morpholine] | 94.6
COc1nc(N/N=C/c2cn(C(C)=O)c3ccccc23)nc(N(C(C)C)C(C)C)n1 [Compound 5, 1-{3-[(4-Diisopropylamino-6-methoxy-[1,3,5]triazin-2-yl)-hydrazonomethyl]-indol-1-yl}-ethanone] | 12000
Cc1[nH]c2ccc(NC(=O)c3cc(NCCN4CCOCC4)nc(N4CCSC4)n3)cc2c1C [Compound 148, N-(2,3-dimethyl-1H-indol-5-yl)-6-(2-morpholinoethylamino)-2-(thiazolidin-3-yl)pyrimidine-4-carboxamide] | 55
Cc1[nH]c2ccc(NC(=O)c3cccc(-c4cn[nH]c4)n3)cc2c1C [Compound 108, 6-(1H-Pyrazol-4-yl)-pyridine-2-carboxylic acid(2,3-dimethyl-1H-indol-5-yl)-amide] | 218
COc1nc(N/N=C/c2c[nH]c3ccc(F)cc23)nc(N(C(C)C)C(C)C)n1 [Compound 4, {4-[N′-(5-Fluoro-1H-indol-3-ylmethylene)-hydrazino]-6-methoxy-[1,3,5]triazin-2-yl}-diisopropyl-amine] | 13000
Cc1[nH]c2ccc(NC(=O)c3cccc(-c4ccncc4F)n3)cc2c1C [Compound 103, 3′-Fluoro-[2,4′]bipyridinyl-6-carboxylic acid(2,3-dimethyl-1H-indol-5-yl)-amide] | 158
Cc1cccc(/C=N/Nc2nc(CCCOC(=O)Nc3ccc([N+](=O)[O-])cc3)cc(N(C)C)n2)c1 [Compound 28, (4-Nitro-phenyl)-carbamic acid 3-{6-dimethylamino-2-[N′-(3-methyl-benzylidene)-hydrazino]-pyrimidin-4-yl}-propyl ester] | 1400
COCCN(C)c1cc(C(=O)Nc2ccc3[nH]c(C)c(C)c3c2)nc(-c2ccncc2)c1 [Compound 102, 4-[(2-Methoxy-ethyl)-methyl-amino]-[2,4′]bipyridinyl-6-carboxylic acid(2,3-dimethyl-1H-indol-5-yl)-amide] | 2.6
COc1ccc(CCOc2nc(N/N=C/c3cccc(C)c3)nc(-n3ccnc3)n2)cc1OC [Compound 21, N-{4-[2-(3,4-Dimethoxy-phenyl)-ethoxy]-6-imidazol-1-yl-[1,3,5]triazin-2yl}-N′-(3-methyl-benzylidene)-hydrazine] | 103
Cc1cccc(/C=N/Nc2nc(CCCO)cc(N(C)C)n2)c1 [Compound 27, 3-{6-Dimethylamino-2-[N′-(3-methyl-benzylidene)-hydrazino]-pyrimidin-4-yl}-propan-1-ol] | 9000
Cc1[nH]c2ccc(NC(=O)c3cccc(-c4ccnc(F)c4)n3)cc2c1C [Compound 107, 2′-Fluoro-[2,4′]bipyridinyl-6-carboxylic acid(2,3-dimethyl-1H-indol-5-yl)-amide] | 193
Cc1[nH]c2ccc(NC(=O)c3cccc(-c4cncnc4)n3)cc2c1C [Compound 104, 6-Pyrimidin-5-yl-pyridine-2-carboxylic acid(2,3-dimethyl-1H-indol-5-yl)-amide] | > 1000
COc1ccc(CCNc2nccc(N/N=C/c3cccc(C)c3)n2)cc1OC [Compound 17, [2-(3,4-Dimethoxy-phenyl)-ethyl]-{4-[N′-(3-methyl-benzylidene)-hydrazino]-pyrimidin-2-yl}-amine] | 636
Cc1[nH]c2ccc(NC(=O)c3cc(NCCN4CCOCC4)nc(N(C)C)n3)cc2c1C [Compound 147, N-(2,3-dimethyl-1H-indol-5-yl)-2-(dimethylamino)-6-(2-morpholinoethylamino)pyrimidine-4-carboxamide] | > 1000
Cc1cccc(/C=N/Nc2cc(N)nc(N/N=C/c3cccc(C)c3)n2)c1 [Compound 19, 2,6-Bis-[N′-(3-methyl-benzylidene)-hydrazino]-pyrimidin-4-ylamine] | 119
COc1ccc(CCOc2nc(N/N=C/c3cccc(C)c3)cc(N(C)C)n2)cc1OC [Compound 15, {2-[2-(3,4-Dimethoxy-phenyl)-ethoxy]-6-[N′-(3-methyl-benzylidene)-hydrazino]-pyrimidin-4-yl}-dimethyl-amine] | 20 to 56
